Results on one compound are retold here after patent publication US12331095B2, “Inducible T cell receptors and uses thereof” (MEDIGENE IMMUNOTHERAPIES GMBH, priority 2018, dated 2025).

In this test the test system is CD8+ PBL. The test can be described thus: Flow cytometry (CD3, BV6-5) for induction of iTCR-NY-ESO on the surface of CD8+ PBL. It counts as cell-based. Conditions: any of the concentrations tried (data not shown). How it is done: FIG. 9: CD8^+ PBL transduced with iTCR-NY-ESO (MHC-I restricted TCR) or CD8^+ PBL expressing wt-NY-ESO were induced overnight with 1, 5, 10 or 20 μM Endoxifen or were left uninduced (no Endoxifen). 24 h after induction T2 cells loaded with relevant peptide SLLMWITQC (SEQ ID NO: 12) or irrelevant peptide VLDGLDVLL (SEQ ID NO: 11) were added to the cultures. IFN-γ secretion was detected by standard IFN-γ ELISA performed with the culture supernatants 24 h after stimulation with T2 targets. Flow cytometry was performed 48 h after induction and cells were assessed for BFP (transductants), CD3 and BV6-5. Exemplary plots shown are iTCR-NY-ESO transduced CD8^+ PBL without induction or with 20 μM Endoxifen. Plots were generated using the analysis tool FlowJo V10. Graph was plotted using graphPad Prism 7.
PBL from a healthy donor was enriched for CD8^+ cells using a commercial cell isolation kit (CD8+untouched) and transduced with the lentiviral vector carrying the iTCR-NY-ESO cassette or with the lentiviral vector carrying wt-NY-ESO as positive control. […] CD8^+ cells carrying either iTCR-NY-ESO were induced overnight with 20 μM Endoxifen or left untreated. Cells were then stained for CD3 (CD3-PECy7, SK7, 557851, BD) and the specific V-beta family BV6-5 (antibody: TRBV6-5-PE, IMMU 222, IM2292, Beckman Coulter).

Take `CCC(=C(c1ccc(O)cc1)c1ccc(OCCN(C)C)cc1)c1ccccc1` [4-Hydroxytamoxifen, 4-(1-[4-(Dimethylaminoethoxy)phenyl]-2-phenyl-1-butenyl)phenol]: the “induction of iTCR-NY-ESO in PBL” value was “did not induce iTCR-NY-ESO in PBL in any of the concentrations tried”.
